Test results taken from US10131744B2, “Antimicrobial polyamide compositions and mastitis treatment” (priority 2013, dated 2018).

Conditions: in vivo, iv
Excerpt: The present invention thus provides novel and non-obvious antimicrobial polyamide compositions, and methods of using same for treating and preventing mastitis in non-human animals. The methods generally comprise administering to an infected animal an effective amount of the veterinary composition to eliminate or cure, completely or substantially, mastitis-causing pathogen(s).

“poly (4,4′-trimethylene dipiperidine bispropanoic acid-co-1,3-diamino propane)” gave a maximum tolerated dose of about 40 mg/kg.
